Measured values from patent US20030104393A1, “Blood assessment of injury” (priority 2000, published 2003).

System: blood cells
Test: Blood pattern of gene expression in epileptic individuals treated with anticonvulsant valporate or carbamazepine (Affymetrix U95A, SAM)
Assay type: in vivo, human
Conditions: for Pattern of expression in blood for each drug: epileptic individuals treated with anticonvulsant vs epileptic individuals taking no anticonvulsant, FIG. 5; for Upregulated genes for Carbamazepine: blood of epileptic individuals treated with carbamazepine vs epileptic individuals taking no anticonvulsant, value = Genbank accession of the upregulated gene
Excerpt: FIG. 5 is a cluster analysis of the expression obtained from pediatric epilepsy patients prior to being treated compared to the expression of these individuals after being treated with anticonvulsant valporate (VPA) or the anticonvulsant carbamazepine (CPZ), as described in the Example 8;
To study the gene expression in Parkinson's patients, blood from over 30 patients is collected from healthy controls as well as from patients with a variety of disorders, including idiopathic Parkinson's patients with bradykinesia, rigidity and the characteristic tremor without dementia or evidence of any other neurological findings; progressive supranuclear palsy, bipolar disorder, schizophrenia, epilepsy, and Tourettes. A commercially available kit (Qiagen) is used to the blood cells from the whole blood samples, and total RNA isolated from the white blood cells. Two thirds of the RNA is used on DNA microarrays, and one third is used for PCR confirmation of the genes that are changed. After the purity of the RNA is checked ([…]), cDNA is synthesized from the total RNA and used to make biotin labeled cRNA. The cRNA is then applied to Affymetrix chips, human U95A chips that can screen for the expression of over 13,000 human genes including 11,000 known genes and 2,000 ESTs, and processed and scanned according to manufacturer's instructions. The chips are scanned twice for each patient sample. Genes that are expressed over two-fold compared to normals are plotted on figures. These genes are confirmed using standard techniques including PCR, Northern blotting or Western blotting. A separate statistical analysis is also applied to the data. […] Once this analysis is performed, the data is used to perform a class prediction analysis. […] The expression value of the genes is shown on the Y axis and the individual patients are plotted on the X-axis.
Blood is obtained from epileptic individuals, epileptic individuals being treated with anticonvulsant valporate and epileptic individuals being treated with anticonvulsant carbamazepine. A pattern of expression is captured and analyzed for each injury state as described in Example 4.

Row | Structure (SMILES) | Pattern of expression in blood for each drug | Upregulated genes for Carbamazepine (gene AA883870: am26f01.s1 Homo sapiens cDNA, 3 end) | Upregulated genes for Carbamazepine (gene AB000824: Homo sapiens mRNA for trehalase, complete cds)
1 | CCCC(CCC)C(=O)O [Valporate, valporate] | different from each other and different from the controls |  | 
2 | NC(=O)N1c2ccccc2C=Cc2ccccc21 [Carbamazepine, carbamazepine] | different from each other and different from the controls | AA883870 | AB000824
